Results as given in patent publication US12083115B2, “Methods for treating neurological symptoms associated with lysosomal storage diseases” (Genzyme Corporation, priority 2020, dated 2024).
pIC50: −log10 of the molar value.

How the values were obtained:
[1] = target: glucosylceramide synthase (Homo sapiens (Human), UniProt Q16739); assay: Glucosylceramide synthase activity microsomal assay; format: biochemical; details: microsomes from A375 human melanoma cells; read-out: GCS IC50
Description: (§1) Inhibition of glucosylceramide synthase activity can be measured with one or more assays. A first assay is a microsomal assay that directly measures the conversion of ceramide to glucosylceramide by HPLC. Microsomes are a source of glucosylceramide synthase activity in the microsomal assay. A second assay is a cell based, phenotypic assay that monitors cell surface expression of the downstream lipid GM3 by antibody mediated immunofluorescence. Specific protocols are provided below.
An enzyme assay using microsomes as a source of glucosylceramide synthase activity. Fluorescent ceramide substrate is delivered to membrane-bound enzyme as a complex with albumin. After reaction, ceramide and glucosylceramide are separated and quantitated by reverse-phase HPLC with fluorescence detection. Enzymatic activity is assessed using a fluorescent labeled substrate and microsomes as a source of glucosylceramide synthase. C6-NBD-Ceramide is complexed with albumin for delivery to microsomes that are isolated according to the procedure described below. The final concentration of C6-NBD-Ceramide in the stock solution is 0.5 mM; the final concentration of BSA is 0.5 mM. Separation and quantitation of substrate and product (glucosylceramide) are achieved by reverse-phase HPLC with fluorescence detection.
Microsomes are isolated from A375 human melanoma cells. Eight to ten million cells are harvested by trypsinization and washed with ice cold PBS. Cells are resuspended in ice-cold lysis buffer containing protease inhibitors. Cell lysate is sonicated on ice using a probe sonicator. After sonication, the cell lysate is separated from debris by centrifugation at 10,000 g for 10 minutes at 4° C. The supernatant is removed and cleared by additional centrifugation at 100,000 g for 1 hour at 4° C. The pellet is then resuspended in the lysis buffer, aliquoted, and stored at −80° C. prior to use.
The reaction is stopped by the addition of 150 μL of 100 μM C8-ceramide in 50% aq. isopropanol; 10 μL of the final mix is analyzed on HPLC (with fluorescence detector). […] Fluorescence is detected with λex=470 nm and λem=530 nm. […] Both peaks are separated from each other and the baseline and were integrated automatically by the HPLC software. The percent conversion of substrate to product is used as the readout for inhibitor testing. […]

[2] = test system: GM3 expression in C32 human melanoma cells; assay: GM3 fluorescent-linked immunosorbent assay (FLISA), C32; format: cell-based; details: 48 hours
Description: as §1
(§2) This is a phenotypic assay that measures GM3 expression in B16 mouse melanoma or C32 human melanoma cells following treatment with test compounds. Cell surface GM3 expression is determined by antibody mediated fluorescence.
(§3) Compounds are diluted in media and plated in 384 well plates in DMSO. B16 and C32 cells are assayed at densities of 20,000 cells/ml and 62,500 cells/ml, respectively, per well. Each titration curve contains 10 points that are assayed in duplicate on each test run. The plates are incubated for 48 hours at 37° C., 5% CO2, and are then washed once with TBS. Anti-GM3 antibody is added to each well and the plates are then incubated for an additional one hour at room temperature. Plates are subsequently washed twice and incubated for an additional hour with the labeled secondary antibody. Following the final incubation, the plates are washed twice and the fluorescence at λex=D640/20 nm and λem=657 nm is detected on a fluorescent reader.
(§4) The results of the microsomal assays are expressed as “GCS IC50,” which represents the concentration of the compound causing 50% inhibition of glucosylceramide synthase activity. The results of the cell-based assays are expressed as “GM3 B16 IC50” or “GM3 C32 IC50” for the B16 assay and the C32 assay, respectively. These values represent the concentration of the compound causing 50% inhibition of GM3 expression on the cell surface.

[3] = test system: GM3 expression in B16 mouse melanoma cells; assay: GM3 fluorescent-linked immunosorbent assay (FLISA), B16; format: cell-based; details: 48 hours
Description: as §1, §2, §3, §4

[4] = test system: neurological manifestations of GD-3; details: cited from earlier work

Sequence of glucosylceramide synthase (Q16739 whole entry): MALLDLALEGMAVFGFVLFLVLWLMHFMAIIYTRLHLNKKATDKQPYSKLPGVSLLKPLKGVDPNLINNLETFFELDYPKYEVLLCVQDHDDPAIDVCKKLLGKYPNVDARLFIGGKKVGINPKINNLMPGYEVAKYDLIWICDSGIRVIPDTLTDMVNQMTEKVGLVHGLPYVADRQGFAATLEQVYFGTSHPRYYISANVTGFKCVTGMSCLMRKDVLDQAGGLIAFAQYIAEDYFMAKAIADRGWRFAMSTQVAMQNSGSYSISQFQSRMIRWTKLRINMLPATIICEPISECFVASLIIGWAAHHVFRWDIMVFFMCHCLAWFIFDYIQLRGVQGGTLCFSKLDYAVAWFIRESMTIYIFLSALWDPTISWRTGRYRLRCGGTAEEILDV

With `CC(C)(NC(=O)OC1CN2CCC1CC2)c1ccc(-c2ccc(OCC#N)cc2)cc1` (centres unmarked) [Compound 23, Quinuclidin-3-yl (2-(4′-(cyanomethoxy)-[1,1′-biphenyl]-4-yl)propan-2-yl)carbamate] as the compound, how does the pIC50 [1] read?
The pIC50 was 5.59.

And the pIC50 [2]?
The pIC50 was 6.10.

What about the pIC50 [3] of the same compound?
Its pIC50 is 4.32.

What does the source list for `O=C(NC1(c2ccc(-c3ccccc3)cc2)CC1)OC1CN2CCC1CC2` (centres unmarked) [Compound 6, Quinuclidin-3-yl 1-(biphenyl-4-yl)cyclopropylcarbamate]?
pIC50 [1]: 5.55; pIC50 [2]: 6.22; pIC50 [3]: 4.74

What does the source list for `COCCOc1ccc(-c2ccc(C(C)(C)NC(=O)O[C@@H]3CN4CCC3CC4)cc2)cc1` [Compound 3, (S)-quinuclidin-3-yl (2-(4′-(2-methoxyethoxy)-[1,1′-biphenyl]-4-yl)propan-2-yl)carbamate]?
pIC50 [1]: 5.38; pIC50 [2]: 5.88; pIC50 [3]: 4.36

With `COc1ccc(-c2ccc(C3(NC(=O)OC4CN5CCC4CC5)CC3)cc2)cc1` (centres unmarked) [Compound 9, 1-azabicyclo[2.2.2]oct-3-yl [1-(4′-methoxybiphenyl-4-yl)cyclopropyl]carbamate] as the compound, how does the pIC50 [1] read?
Its pIC50 is 5.85.

What about the pIC50 [2] of the same compound?
The pIC50 was 6.40.

What about the pIC50 [3] of the same compound?
Its pIC50 is 4.77.

What does the source list for `CC(C)(NC(=O)OC1CN2CCC1CC2)c1ccc(-c2ccc(CCO)cc2)cc1` (centres unmarked) [Compound 18, Quinuclidin-3-yl (2-(4′-(2-hydroxyethyl)-[1,1′-biphenyl]-4-yl)propan-2-yl)carbamate]?
pIC50 [1]: 3.83; pIC50 [2]: 4.65; pIC50 [3]: 3.18

With `COCCOc1ccc(-c2cccc(C(C)(C)NC(=O)OC3CN4CCC3CC4)c2)cc1` (centres unmarked) [Compound 15, Quinuclidin-3-yl (2-(4′-(2-methoxyethoxy)-[1,1′-biphenyl]-3-yl)propan-2-yl)carbamate] as the compound, how does the pIC50 [1] read?
Its pIC50 is 4.57.

What about the pIC50 [2] of the same compound?
The pIC50 was 5.31.

What about the pIC50 [3] of the same compound?
Its pIC50 is 4.53.

Which results are given for `COCCOc1cccc(-c2ccc(C(C)(C)NC(=O)O[C@@H]3CN4CCC3CC4)cc2)c1` [Compound 14, (S)-quinuclidin-3-yl (2-(3′-(2-methoxyethoxy)-[1,1′-biphenyl]-4-yl)propan-2-yl)carbamate]?
pIC50 [1]: 4.98; pIC50 [2]: 5.28; pIC50 [3]: 3.96

With `O=C(NC1(c2ccc(-c3ccc(F)cc3F)cc2)CC1)O[C@@H]1CN2CCC1CC2` [Compound 8, (S)-1-azabicyclo[2.2.2]oct-3-yl [1-(2′,4′-difluorobiphenyl-4-yl)cyclopropyl]carbamate] as the compound, how does the pIC50 [1] read?
The pIC50 was 6.00.

And the pIC50 [2]?
The pIC50 was 6.40.

And the pIC50 [3]?
The pIC50 was 5.12.

What does the source list for `COCCOc1ccc(-c2nc(C(C)(C)NC(=O)OC3CN4CCC3CC4)cs2)cc1` (centres unmarked) [Compound 20, Quinuclidin-3-yl (2-(2-(4-(2-methoxyethoxy)phenyl)thiazol-4-yl)propan-2-yl)carbamate]?
pIC50 [1]: 3.44; pIC50 [2]: 4.70; pIC50 [3]: 3.97

What does the source list for `CC(C)(NC(=O)OC1CN2CCC1CC2)c1csc(-c2ccc(F)cc2)c1` (centres unmarked) [Compound 10, Quinuclidin-3-yl 2-(5-(4-fluorophenyl)thiophen-3-yl)propan-2-ylcarbamate]?
pIC50 [1]: 5.19; pIC50 [2]: 5.66; pIC50 [3]: 4.67

With `CC(C)(NC(=O)OC1CN2CCC1CC2)c1cccc(-c2ccc(F)cc2)c1` (centres unmarked) [Compound 1, Quinuclidin-3-yl (2-(4′-fluoro-[1,1′-biphenyl]-3-yl)propan-2-yl)carbamate] as the compound, how does the pIC50 [1] read?
The pIC50 was 5.72.

What about the pIC50 [2] of the same compound?
The pIC50 was 5.68.

What about the pIC50 [3] of the same compound?
Its pIC50 is 4.81.

With `CC(C)(NC(=O)O[C@@H]1CN2CCC1CC2)c1cc(-c2ccc(F)cc2)ns1` [Compound 11, (S)-quinuclidin-3-yl 2-(3-(4-fluorophenyl)isothiazol-5-yl)propan-2-ylcarbamate] as the compound, how does the pIC50 [1] read?
Its pIC50 is 4.83.

What about the pIC50 [2] of the same compound?
The pIC50 was 5.74.

And the pIC50 [3]?
The pIC50 was 4.09.

Which results are given for `COCCOc1ccc(-c2ccc(C(C)(C)NC(=O)OC3CN4CCC3CC4)nc2)cc1` (centres unmarked) [Compound 21, Quinuclidin-3-yl 2-(5-(4-(2-methoxyethoxy)phenyl)pyridin-2-yl)propan-2-ylcarbamate]?
pIC50 [1]: 4.30; pIC50 [2]: 4.95; pIC50 [3]: 3.58

Which results are given for `COCCCOc1ccc(-c2ccc(C(C)(C)NC(=O)OC3CN4CCC3CC4)cc2)cc1` (centres unmarked) [Compound 16, Quinuclidin-3-yl (2-(4′-(3-methoxypropoxy)-[1,1′-biphenyl]-4-yl)propan-2-yl)carbamate]?
pIC50 [1]: 5.62; pIC50 [2]: 5.80; pIC50 [3]: 4.18

With `CC(C)(NC(=O)O[C@@H]1CN2CCC1CC2)c1nc(-c2ccc(F)cc2)cs1` [Compound 12, (S)-quinuclidin-3-yl 2-(4-(4-fluorophenyl)thiazol-2-yl)propan-2-ylcarbamate] as the compound, how does the pIC50 [1] read?
The pIC50 was 4.69.

What about the pIC50 [2] of the same compound?
The pIC50 was 5.43.

And the pIC50 [3]?
The pIC50 was 4.06.

With `CC(C)(NC(=O)OC1CN2CCC1CC2)c1cccc(-c2ccccc2)c1` (centres unmarked) [Compound 4, 1-azabicyclo[2.2.2]oct-3-yl [2-(biphenyl-3-yl)propan-2-yl]carbamate] as the compound, how does the pIC50 [1] read?
Its pIC50 is 5.82.

And the pIC50 [2]?
The pIC50 was 6.10.

What about the pIC50 [3] of the same compound?
Its pIC50 is 4.94.

With `CCCCN1C[C@H](O)[C@@H](O)[C@H](O)[C@H]1CO` [miglustat] as the compound, how does the “treatment of the neurological manifestations of GD-3” value ([4]; clinical trials) read?
The value was “ineffective”.

What about the “crossing of the blood-brain barrier” value ([4]; human, in vivo) of the same compound?
Its value is “does cross the blood-brain barrier”.

With `CC(C)(NC(=O)OC1CN2CCC1CC2)c1ccc(-c2ccc(CO)cc2)cc1` (centres unmarked) [Compound 17, Quinuclidin-3-yl (2-(4′-(hydroxymethyl)-[1,1′-biphenyl]-4-yl)propan-2-yl)carbamate] as the compound, how does the pIC50 [1] read?
The pIC50 was 3.34.

What about the pIC50 [2] of the same compound?
Its pIC50 is 4.67.

What about the pIC50 [3] of the same compound?
Its pIC50 is 3.06.

With `CC(C)(NC(=O)OC1CN2CCC1CC2)c1ccc(-c2ccc(OCCCC#N)cc2)cc1` (centres unmarked) [Compound 22, Quinuclidin-3-yl (2-(4′-(3-cyanopropoxy)-[1,1′-biphenyl]-4-yl)propan-2-yl)carbamate] as the compound, how does the pIC50 [1] read?
Its pIC50 is 5.02.

What about the pIC50 [2] of the same compound?
The pIC50 was 5.49.

What about the pIC50 [3] of the same compound?
The pIC50 was 4.06.

With `COCCOc1ccc(-c2ccc(C(C)(C)NC(=O)OC3CN4CCC3CC4)cc2)cc1` (centres unmarked) [Compound 13, Quinuclidin-3-yl (2-(4′-(2-methoxyethoxy)-[1,1′-biphenyl]-4-yl)propan-2-yl)carbamate] as the compound, how does the pIC50 [1] read?
The pIC50 was 5.46.

And the pIC50 [2]?
The pIC50 was 6.15.

And the pIC50 [3]?
Its pIC50 is 4.41.

With `CC(C)(NC(=O)O[C@@H]1CN2CCC1CC2)c1ccc(-c2ccccc2)cc1` [Compound 5, (S)-quinuclidin-3-yl 2-(biphenyl-4-yl)propan-2-ylcarbamate] as the compound, how does the pIC50 [1] read?
Its pIC50 is 5.92.

And the pIC50 [2]?
The pIC50 was 6.52.

And the pIC50 [3]?
Its pIC50 is 4.71.

With `O=C(NC1(c2ccc(-c3ccc(F)cc3)cc2)CC1)O[C@@H]1CN2CCC1CC2` [Compound 7, (S)-quinuclidin-3-yl 1-(4′-fluorobiphenyl-4-yl)cyclopropylcarbamate] as the compound, how does the pIC50 [1] read?
The pIC50 was 5.85.

What about the pIC50 [2] of the same compound?
Its pIC50 is 6.40.

What about the pIC50 [3] of the same compound?
Its pIC50 is 5.09.

What does the source list for `COCCCOc1ccc(-c2nc(C(C)(C)NC(=O)OC3CN4CCC3CC4)cs2)cc1` (centres unmarked) [Compound 19, Quinuclidin-3-yl (2-(2-(4-(3-methoxypropoxy)phenyl)thiazol-4-yl)propan-2-yl)carbamate]?
pIC50 [1]: 3.77; pIC50 [2]: 4.37; pIC50 [3]: 3.71
